The results in this text go back to patent US10526352B2, “Tricyclic benzoxaborole compounds and uses thereof” (GlaxoSmithKline Intellectual Property (No.2) Limited, priority 2013, dated 2020).

In this assay the test system is M. tuberculosis clinical isolates. The assay can be described thus: MIC against clinical strains (BACTEC MGIT 960 System). Format: cell-based. The note with it: Mycobacterium tuberculosis.
Setting [1] is: strain 123, resistant clinical isolate, resistance HSERZKTACp.
The mark [2] stands for this setting: strain 139, resistant clinical isolate, resistance HSERZKTACp.
The mark [3] stands for this setting: strain 141, resistant clinical isolate, resistance HRT.
[4] abbreviates: strain 167, resistant clinical isolate, resistance HSRZ.
Where [5] appears, read: strain 175, resistant clinical isolate, resistance S.
The mark [6] stands for this setting: strain 198, resistant clinical isolate, resistance H.
[7] abbreviates: strain 242, resistant clinical isolate, resistance H.
Where [8] appears, read: strain 330, resistant clinical isolate, resistance HSR (Tables 2B, 2D).
Where [9] appears, read: strain 1672, resistant clinical isolate, resistance HSRZ.
Where [10] appears, read: strain 1819, resistant clinical isolate, resistance HSRZ.

Structures are written as SMILES.

`Cl.NC[C@H]1OB2OCCOc3ccc(Cl)c1c32` [Example 4, (S)-(3-chloro-7,8-dihydro-2H-1,6,9-trioxa-9a-borabenzo[cd]azulen-2-yl)methanamine hydrochloride]: the MIC worked out at 0.16 µM (strain 106, resistant clinical isolate, resistance HR); 0.16 µM under setting [1]; 0.08 µM under setting [2]; 0.08 µM under setting [3]; 0.08 µM under setting [4]; 0.08 µM under setting [5]. Besides, the MIC runs as follows: (strain 192, resistant clinical isolate, resistance HS) 0.31 µM; under setting [6], 0.08 µM; (strain 201, resistant clinical isolate, resistance HRE) 0.08 µM; (strain 202, resistant clinical isolate, resistance S) 0.08 µM; under setting [7], 0.08 µM; (strain 254, resistant clinical isolate, resistance H) 0.16 µM. Also, the MIC by setting is: (strain 277, resistant clinical isolate, resistance H) 0.08 µM; (strain 297, resistant clinical isolate, resistance HSR) 0.16 µM; (strain 330, resistant clinical isolate, resistance HS) 0.08 µM; under setting [8], 0.08 µM; (strain 330, resistant clinical isolate, resistance RSR) 0.04 µM; (strain 409, resistant clinical isolate, resistance HR) 0.08 µM. Further, the MIC runs as follows: (strain 415, resistant clinical isolate, resistance HRT) 0.08 µM; (strain 514, resistant clinical isolate, resistance HSRT) 0.08 µM; (strain 562, resistant clinical isolate, resistance HSERZKTA) 0.08 µM; (strain 605, resistant clinical isolate, resistance HSERZACp) 0.16 µM; (strain 670, resistant clinical isolate, resistance HRZ) 0.04 µM; (strain 709, resistant clinical isolate, resistance S) 0.08 µM. The same compound returned an MIC (strain 732, resistant clinical isolate, resistance S) of 0.08 µM; an MIC under setting [9] of 0.08 µM; an MIC under setting [10] of no more than 0.02 µM; an MIC (strain CR, resistant clinical isolate, resistance HSERZ) of 0.31 µM.
As for `Cl.NC[C@H]1OB2OCCOc3ccc(Br)c1c32` [Example 2, (S)-(3-bromo-7,8-dihydro-2H-1,6,9-trioxa-9a-borabenzo[cd]azulen-2-yl)methanamine hydrochloride], the MIC reads like this: under setting [1], 0.08 µM; under setting [2], 0.08 µM; under setting [3], 0.08 µM; under setting [4], 0.08 µM; under setting [5], 0.08 µM; under setting [6], 0.08 µM. Besides, the MIC by setting is: under setting [7], 0.08 µM; under setting [8], 0.08 µM; under setting [9], 0.08 µM; under setting [10], 0.04 µM.
In the case of `NC[C@H]1OB2OCCOc3ccc(Cl)c1c32` [Example G4-Cl], the MIC (for more than 85 clinical isolate strains of 97 tested (sensitive and resistant)) is less than 1 µM.
